# Patent US8088570B2, “Method for screening an agent for preventing or ameliorating wrinkles” (Kao Corporation, priority 2006, dated 2012)
# Tests used:
# [1] = test system: chronically ultraviolet-irradiated mice (wrinkle formation model); assay: Wrinkle-improving effect of CLP, visual observation score in chronically ultraviolet-irradiated hairless mice (Reference Example 1); type: in vivo, hairless mice (Hr-1-ICR); details: 5 w/v % CLP, 100 μL on dorsal skin for 6 weeks after 12 weeks of UV irradiation
# Source text: An experimental system of the chronic and continuous exposure of hairless mice to ultraviolet rays of minimum erythema dose (hereinafter, referred to as 1 MED) or lower (J. Pharm. Pharmacol. 1992; 44: 379-386; and Photochem. Photobiol., 1991; 53: 109-112) was used as a wrinkle formation model to perform a test of wrinkle improvement of 1-carbamimidoyl-L-proline (CLP) in vivo.
# The mice used were hairless mice (Hr-1-ICR) produced from crossing between Hr-1 (Skh-1) hairless mice and ICR mice. Toshiba SE20 lamps were used as an ultraviolet source, and ultraviolet doses used were measured with UV-RADIOMETER (UVR-305/365D, Eisai). The 6- to 10-week-old hairless mice were exposed once a day and five times a week for 12 consecutive weeks to ultraviolet rays of 1 MED or lower, that is, at a dose of 470 J/m^2 during the 0th (at the start of irradiation) to first week, at a dose of 530 J/m^2 during the first to second week, at a dose of 600 J/m^2 during the second to third week, and at a dose of 670 J/m^2 during the fourth and subsequent weeks, to prepare chronically ultraviolet-irradiated mice. […]
# The degree of wrinkles formed on the dorsal skins of the mice was determined at the start of CLP application and on the 6th week according to a visual observation score with reference to the documents described above. The score was evaluated on a scale of 7 using the scores below and mean values. […]
# [2] = test system: K6 protein; assay: Epidermal K6 protein level by western blotting in wrinkle model mice (Example 1); type: in vivo, hairless mice; details: 5 w/v % CLP applied 6 weeks after 9 weeks of UV irradiation; compared with solvent control and unirradiated mice
# Protocol: (§1) Six-week-old hairless mice of the same species as in Reference Example 1 were exposed for 9 consecutive weeks to ultraviolet rays at a dose of 470 J/m^2 during the 0th (at the start of irradiation) to first week, at a dose of 530 J/m^2 during the first to second week, at a dose of 600 J/m^2 during the second to third week, and at a dose of 670 J/m^2 during the fourth and subsequent weeks, to prepare chronically ultraviolet-irradiated mice (wrinkle model mice). Then, 100 μL of 5 w/v % CLP solution (50 vol % ethanol solution) was applied once […] and five times a week for 6 consecutive weeks to the whole dorsal skin of each of the mice to examine changes in epidermal keratin protein levels. For controls, 50 vol % ethanol solution (solvent control) and unirradiated age-matched mice (unirradiated mice) were used. Each of the groups comprised 3 mice.
# (§2) After the dorsal skins collected from the mice were cooled on ice immediately after treatment in distilled water at 60° C. for 1 minute, epidermal portions were separated from the dermis with a spatula. […] Labeling was performed by using peroxidase-labeled secondary antibodies, and color was developed by chemiluminescence method (ECL-Plus, Amersham Pharmacia Biotech) and detected with X-ray films. Quantification was performed with Adobe Photoshop (Adobe Systems Incorporated).
# [3] = test system: K16 protein; assay: Epidermal K16 protein level by western blotting in wrinkle model mice (Example 1); type: in vivo, hairless mice; details: 5 w/v % CLP applied 6 weeks after 9 weeks of UV irradiation; compared with solvent control and unirradiated mice
# Protocol: as §1, §2
# [4] = test system: K1 protein; assay: Epidermal K1 protein level by western blotting in wrinkle model mice (Example 1); type: in vivo, hairless mice; details: 5 w/v % CLP applied 6 weeks after 9 weeks of UV irradiation
# Protocol: as §1, §2
# [5] = test system: K10 protein; assay: Epidermal K10 protein level by western blotting in wrinkle model mice (Example 1); type: in vivo, hairless mice; details: 5 w/v % CLP applied 6 weeks after 9 weeks of UV irradiation
# Protocol: as §1, §2
# [6] = test system: K14 protein; assay: Epidermal K14 protein level by western blotting in wrinkle model mice (Example 1); type: in vivo, hairless mice; details: 5 w/v % CLP applied 6 weeks after 9 weeks of UV irradiation
# Protocol: as §1, §2
# [7] = test system: K5 protein; assay: Epidermal K5 protein level by western blotting in wrinkle model mice (Example 1); type: in vivo, hairless mice; details: 5 w/v % CLP applied 6 weeks after 9 weeks of UV irradiation
# Protocol: as §1, §2
# [8] = test system: hairless mice exposed to ultraviolet rays (wrinkle formation); assay: Inhibitory effect of CLP on wrinkle formation, visual observation score (Example 2); type: in vivo; details: 4% (Wt/Vol %) CLP, 100 μL applied immediately after each UV irradiation, 12 weeks
# Protocol: The degree of wrinkles formed on the dorsal skins of the mice was determined at the start of CLP application and on the 6th week according to a visual observation score with reference to the documents described above. The score was evaluated on a scale of 7 using the scores below and mean values.
# Score 0: no wrinkle observed
# Score 1: wrinkles slightly observed
# Score 2: wrinkles observed
# Score 3: wrinkles remarkably observed
# The same 6- to 8-week-old hairless mice as in Reference Example 1 were used and exposed to ultraviolet rays of 1 MED (minimum erythema dose) or lower. Immediately after the ultraviolet irradiation, procedures for applying 100 μL of 4% (Wt/Vol %) CLP solution (solvent: 30 Vol/Vol % ethanol/water solution) or vehicle control to the whole dorsal skin of each of the mice were performed once a day and five times a week for 12 consecutive weeks. The irradiation dose was 470 J/m^2 during the 0th (at the start of irradiation) to first week, 530 J/m^2 during the first to second week, 600 J/m^2 during the second to third week, and 670 J/m^2 during the fourth and subsequent weeks. Each of the groups comprised 10 to 12 mice.
# The degree of wrinkles formed on the dorsal skins of the mice was determined after 12 weeks from the start of ultraviolet irradiation according to the visual observation score in the same way as in Reference Example 1.
# [9] = test system: K6 protein; assay: Epidermal K6 protein level by western blotting, wrinkle formation test (Example 2); type: in vivo, hairless mice; details: 4% CLP applied with UV irradiation, 12 weeks
# Protocol: (§3) After the dorsal skins collected from the mice were cooled on ice immediately after treatment in distilled water at 60° C. for 1 minute, epidermal portions were separated from the dermis with a spatula. The obtained epidermal portions (containing the stratum corneum) were homogenized in a urea buffer (8 M urea, 50 mM tris-HCl (pH 7.6), 100 mM mercaptoethanol, 1 mM dithiothreitol, and protease inhibitors) to extract proteins. Insoluble matter was removed by centrifugation and supernatant collection. Following the measurement of the total protein concentration (RD DC Protein Assay Kit, Bio-Rad Laboratories Inc.), samples were prepared at the same concentrations. The samples were supplemented with laemmli buffer and treated at 90 to 100° C. for 3 to 5 minutes to give samples for electrophoresis. The samples were electrophoresed on 5 to 15% gradient acrylamide gel or 12.5% acrylamide gel (Bio Rad) at 60 V for 3 hours and blotted onto a nitrocellulose membrane at 250 mA for 1 hour under ice cooling. […] Labeling was performed by using peroxidase-labeled secondary antibodies, and color was developed by chemiluminescence method (ECL-Plus, Amersham Pharmacia Biotech) and detected with X-ray films. Quantification was performed with Adobe Photoshop (Adobe Systems Incorporated). […]
# (§4) Moreover, the quantification of keratin proteins was performed by western blotting in the same way as in Example 1.
# [10] = test system: K16 protein; assay: Epidermal K16 protein level by western blotting, wrinkle formation test (Example 2); type: in vivo, hairless mice; details: 4% CLP applied with UV irradiation, 12 weeks
# Protocol: as §3, §4
# [11] = test system: K1 protein; assay: Epidermal K1 protein level by western blotting, wrinkle formation test (Example 2); type: in vivo, hairless mice; details: 4% CLP applied with UV irradiation, 12 weeks
# Protocol: as §3, §4
# [12] = test system: K10 protein; assay: Epidermal K10 protein level by western blotting, wrinkle formation test (Example 2); type: in vivo, hairless mice; details: 4% CLP applied with UV irradiation, 12 weeks
# Protocol: as §3, §4
# [13] = test system: K5 protein; assay: Epidermal K5 protein level by western blotting, wrinkle formation test (Example 2); type: in vivo, hairless mice; details: 4% CLP applied with UV irradiation, 12 weeks
# Protocol: as §3, §4
# [14] = test system: K14 protein; assay: Epidermal K14 protein level by western blotting, wrinkle formation test (Example 2); type: in vivo, hairless mice; details: 4% CLP applied with UV irradiation, 12 weeks
# Protocol: as §3, §4
smiles,measurement,setting,value
"N=C(N)N1CCC[C@H]1C(=O)O [CLP, 1-carbamimidoyl-L-proline]","visual observation score of wrinkles, 6th week compared with at the start",[1],significantly decreased
same,"visual observation score of wrinkles, compared with control group on the 6th week",[1]; control 30 vol % ethanol,significantly lower
same,epidermal K6 protein level,[2],decreased to unirradiated levels
same,epidermal K16 protein level,[3],decreased to unirradiated levels
same,epidermal K1 protein level,[4],No significant difference
same,epidermal K10 protein level,[5],No significant difference
same,epidermal K14 protein level,[6],No significant difference
same,epidermal K5 protein level,[7],hardly changed
same,wrinkle formation (visual observation score) compared with vehicle control group,[8],significant inhibitory effect
same,K6 protein level compared with vehicle control group,[9],significantly decreased
same,K16 protein level compared with vehicle control group,[10],significantly decreased
same,K1 protein level compared with vehicle control group,[11],no significant difference
same,K10 protein level compared with vehicle control group,[12],no significant difference
same,K5 protein level compared with vehicle control group,[13],no significant difference
same,K14 protein level compared with vehicle control group,[14],no significant difference
